Test system: Phosphorylation of STAT6 in human A549 cells
Test: Phosphorylated STAT6 (pSTAT6) flow cytometry assay in human A549 cells
Assay type: cell-based
Details: read-out: STAT6 IL4 pSTAT6 assay in A549 cells: Average IC50
Source text: Example 3. Phosphorylated STAT6 (pSTAT6) Flow Cytometry Assay in Human A549 Cells
Phosphorylation of STAT6 in human A549 cells was quantitatively measured using flow cytometry technology.

Row | IC50 [nM] | SMILES
1 | < 100 | CN(C)C(=O)c1cc2cc(C3=CCCN(C(=O)CCn4ccnn4)C3)cc(CN3CC(N)C3)c2o1 [Example I-1180]
2 | < 100 | COc1cccc(C2=CCN(C(=O)c3cc4c(-c5cnccc5OC)cc(C5=CCCN(C(=O)CCn6ccnn6)C5)c(F)c4[nH]3)CC2)n1 [Example I-443]
3 | < 100 | COc1ccccc1-c1cc(C2=CCCN(C(=O)CCn3ccnn3)C2)c(F)c2[nH]c(C(=O)N3CCN(c4ccn(C)n4)CC3)cc12 [Example I-933]
4 | < 100 | COc1ccccc1-c1cc(C2=CCCN(C(=O)CCn3ccnn3)C2)c(F)c2[nH]c(C(=O)N3CCc4ncccc43)cc12 [Example I-974]
5 | > 100000 | COc1cccnc1N1CCN(C(=O)c2cc3c(-c4cnc5ccccc5c4OC)cc(C4=CCCN(C(=O)CCn5ccnn5)C4)c(F)c3[nH]2)CC1 [Example I-402]
6 | < 100 | COc1ccccc1-c1cc(C2=CCCN(C(=O)CCn3ccnn3)C2)c(F)c2[nH]c(C(=O)N3CCN(CC4(C#N)CC4)CC3)cc12 [Example I-1014]
7 | < 100 | CCc1nc(C)ccc1-c1cc(C(=O)N2CCN(c3ncc(F)cc3OC)CC2)cc2cc(C3=CCCN(C(=O)CCn4cccn4)C3)n(CC3CC3)c12 [Example I-522]
8 | 100 to 1000 | COc1ccccc1-c1cc(C2=CCCN(C(=O)CCn3ccnn3)C2)c(F)c2[nH]c(C(=O)N3CCN(c4nccc(-c5ccccc5)n4)CC3)cc12 [Example I-904]
9 | < 100 | COc1ccccc1-c1cc(C2=CCCN(C(=O)CCn3ccnn3)C2)c(F)c2[nH]c(C(=O)N3CCN(c4c(C)cc[nH]c4=O)CC3)cc12 [Example I-1030]
10 | < 100 | COc1ccncc1-c1cc(C2=CCCN(C(=O)CCn3ccnn3)C2)c(F)c2[nH]c(C(=O)N3CCN(c4ncc(C5CC5)cc4OC)CC3)cc12 [Example I-438]
11 | > 100000 | CCCCCCc1cc(C2=CCCN(C(=O)CCn3ccnn3)C2)c(F)c2[nH]c(C(=O)N3CCN(c4ncc(F)cc4OC)CC3)cc12 [Example I-695]
12 | 100 to 1000 | CC(=O)N1CCC=C(c2cc(-c3ccc4cnn(C)c4c3)c3cc(C(=O)N(C)C)[nH]c3c2F)C1 [Example I-882]
13 | < 100 | COc1ccccc1-c1cc(C2=CCCN(C(=O)CCn3ccnn3)C2)c(F)c2[nH]c(C(=O)N3CCc4c(cnn4C)C3)cc12 [Example I-518]
14 | < 100 | COc1ccncc1-c1cc(C2=CCCN(C(=O)CCn3ccnn3)C2)c(F)c2[nH]c(C(=O)N3CCN(c4ncncc4OC)CC3)cc12 [Example I-429]
15 | < 100 | COc1ccccc1-c1cc(C2=CCCN(C(=O)CCn3ccnn3)C2)c(F)c2[nH]c(C(=O)N3CCN(c4cc(F)c5nc(C)n(C(C)C)c5c4)CC3)cc12 [Example I-340]
16 | > 100000 | COc1cccnc1N1CCN(C(=O)c2cc3c(-c4ccc5ccccc5c4OC)cc(C4=CCCN(C(=O)CCn5ccnn5)C4)c(F)c3[nH]2)CC1 [Example I-396]
17 | < 100 | COc1ccccc1-c1cc(C2=CCCN(C(=O)CCn3ccnn3)C2)c(F)c2[nH]c(C(=O)N3CCc4cccc(OC)c4C3)cc12 [Example I-901]
18 | < 100 | COc1cccnc1N1CCN(C(=O)c2cc3c(-c4nc(C)[nH]c4C)cc(C4=CCCN(C(=O)CCn5ccnn5)C4)c(F)c3[nH]2)CC1 [Example I-572]
19 | 100 to 1000 | COc1cc(F)cnc1N1CCN(C(=O)c2cc3c(-c4ccc(F)c(C)c4)cc(C4=CCCN(C(=O)CCn5ccnn5)C4)c(F)c3[nH]2)CC1 [Example I-676]
20 | 10000 to 100000 | CCc1ccccc1-c1cc(C2=CCCN(C(=O)CCn3ccnn3)C2)c(F)c2[nH]c(C(=O)N3Cc4cnn(C)c4C3)cc12 [Example I-700]
21 | < 100 | COc1ccccc1-c1cc(C2=CCCN(C(=O)CCn3ccnn3)C2)c(F)c2[nH]c(C(=O)N3CCN(c4c(C)ccn5nccc45)CC3)cc12 [Example I-1019]
22 | < 100 | COc1ccccc1-c1cc(C2=CCCN(C(=O)CCn3ccnn3)C2)c(F)c2[nH]c(C(=O)N3CCN(c4c(C)ccc5[nH]ncc45)CC3)cc12 [Example I-959]
23 | 100 to 1000 | COc1ccccc1-c1cc(C2=CCCN(C(=O)CCn3ccnn3)C2)c(F)c2[nH]c(C(=O)N3CCN(Cc4ccc(Cl)cc4)CC3)cc12 [Example I-868]

Reference: US20250214977A1, “STAT6 INHIBITORS AND USES THEREOF” (Kymera Therapeutics, Inc., priority 2024, published 2025)
